Results on four compounds are retold here after patent publication US11452712B2, “Methods and compositions involving (S)-bucindolol” (ARCA BIOPHARMA, INC., priority 2008, dated 2022).

Each structure is given as a SMILES string.

Experiment [1] concerns Human umbilical vein endothelial cells. As to the kind of experiment: CaI-stimulated NO release in HUVECs (electrochemical nanosensor). It counts as cell-based. The note with it: 1.0 μM drug, 6 hr pretreatment; for NO release: 1.0 μM CaI stimulation, mean±S.D.; for increase in NO release: versus control. Here is the method: (§1) Human umbilical vein endothelial cells were isolated into primary cultures from healthy female donors by Clonetics (San Diego, Calif.) and purchased as proliferating cells. All cell culture donors were healthy, with no pregnancy or prenatal complications. None of the donors took any drugs regularly and all were nonsmokers and consumed regular caloric/content diet. The cultured cells were incubated in 95% air/5% CO2 at 37° C. and passage by an enzymatic (trypsin) procedure. The confluent cells (4 to 5×10^5 cells per 35-mm dish) were placed with minimum essential medium containing 3 mM L-arginine and 0.1 mM (6R)-5,6,7,8-tetrahydrobiopterin (BH4). Before the experiments, the cells (from second or third passage) were rinsed twice with Tyrode-HEPES buffer with 1.8 mM CaCl2. Bucindolol and its enanatiomers were obtained from Arca Discovery (Denver, Colo.).
(§2) Measurement of NO was carried out with electrochemical nanosensors (FIG. 1). Their design was based on previously developed and well-characterized chemically modified carbon-fiber technology (Lvovich and Scheeline, 1997; Malinski and Taha, 1992). Each of the nanosensors was constructed by depositing a sensing material on the tip of a carbon fiber (length 4-5 μm, diameter 0.2-0.5 μm). The fibers were sealed with nonconductive epoxy and electrically connected to copper wires with conductive silver epoxy. The inventors used a conductive film of polymeric nickel (II) tetrakis (3-methoxy-4-hydroxyphenyl) porphyrin for the NO-sensor.
The NO nanosensors (diameter 1-2 μm) with a platinum wire (0.1 mm) counter electrode and saturated calomel reference electrode (SCE) were applied. Differential pulse voltammetry (DPV) and amperometry were performed with a computer-based Gamry VFP600 multichannel potentiostat. DPV was used to measure the basal NO concentrations, and amperometry was used to measure changes in NO concentrations from its basal level with time. The DPV current at the peak potential characteristic for NO oxidation (0.65 V) […] was directly proportional to the local concentrations of these compounds in the immediate vicinity of the sensor. Linear calibration curves (current vs. concentration) were constructed for each sensor from 10 nM to 3 μM before and after measurements with aliquots of NO standard solutions, respectively. The detection limit of the sensors was 1.0 nM.
(§3) The quantification of each analyte (concentration in nmol/L) was performed using a maximum current from amperograms and standard calibration curves. The reproducibility of measurements with nanosensors is relatively high, as previously described (Lvovich and Scheeline, 1997; Malinski and Taha, 1992). […] The sensors were slowly raised 5±2 μm from the surface of a single endothelial cell.
(§4) The HUVEC preparation is stable over the course of these experiments with the cells remaining viable and active responses to NO stimulation in culture for >24 hours. For robust statistical analysis, randomly selected cells were used for each concentration and type of drug used in these analyses.

The test system is the same in experiment [2]. Nature of the experiment: CaI-stimulated ONOO− release in HUVECs (nanosensor). Type of experiment: cell-based. The note with it: 1.0 μM drug; for ONOO− levels: CaI stimulation, mean±S.D.; for reduction of ONOO− levels: versus control.
Excerpt: FIG. 1. Schematic diagram of a NO nanosensor placed in close proximity to the surface of a single endothelial cell. The nanosensor measures the levels of NO, O2^−, and ONOO^− from the intact endothelium in real time. The sensors are made by depositing a sensing material on the tip of carbon fiber with a diameter of about 0.5 μm. The fibers are sealed with nonconductive epoxy and electrically connected to wires (gold, copper) with conductive silver epoxy.
as §1, §3, §4

For experiment [3] the test system is unchanged. As to the kind of experiment: CaI-stimulated NO/ONOO− release ratio in HUVECs. Type of experiment: cell-based. The note with it: for increase in NO/ONOO− ratio: 1.0 μM drug; for favorable effect on endothelial function as compared to bucindolol racemate: NO and ONOO− release, HUVECs. Here is the method: as §1, §2, §3
The most comprehensive measurement of endothelial function is the ratio of NO to
ONOO^− following treatment with these agents. […] The basis for these differences is not understood but may be due to genetic variability in the eNOS protein. Bucindolol racemate (1.0 μM) increased the NO/ONOO^− ratio in white donors (49%), Mexican American donors (23%), and African American donors (38%) as shown in FIGS. 11-13. […] Again, the favorable effects of bucindolol and its enanatiomers were much more apparent at the higher dose (10.0 μM) by at least two fold. The effect at the high concentration was especially evident in higher risks populations (African Americans, Mexican Americans).

For the next experiment, the target named is T1, β1AR Arg/Arg (Homo sapiens, UniProt P08588, G389R).
T1 construct: isolated failing human right ventricular trabeculae; from tissue; host or cells: isolated failing human right ventricular trabeculae, β1AR Arg/Arg genotype
As to the kind of experiment: Force development in isolated failing human right ventricular trabeculae, β1AR Arg/Arg. Type of experiment: cell-based.

For the next experiment, the target named is T2, β1AR Gly carrier (Homo sapiens, UniProt P08588).
T2 construct: isolated failing human right ventricular trabeculae; from tissue; host or cells: isolated failing human right ventricular trabeculae, β1AR 389 Gly carrier genotypes
Nature of the experiment: Force development in isolated failing human right ventricular trabeculae, β1AR Gly carrier. Type of experiment: cell-based.

For experiment [4] the following is noted: cited from earlier work.
For another experiment, the target named is T3, β1 389 Arg/Arg receptor (Homo sapiens, UniProt P08588, G389R).
T3 construct: left ventricular membranes prepared from one patient who had the β1 389 Arg/Arg receptor; from tissue; host or cells: human left ventricular membranes, one patient, genotype 389 Arg/Arg
As to the kind of experiment: Competition binding in human LV membranes, β1 389 Arg/Arg. The method, then:
(§5) FIG. 14A, 14B. 14A—Competition curve between S- or R-bucindolol in human LV membranes that are 86% β1. AR and genotypically 389 Arg/Arg. The respective Kis are 0.49 nM and 14.0 nM for the S- and R-isomers. 14B—Competition curve between S- or R-bucindolol in human LV membranes that are 83% β1. AR and genotypically 389 Gly/Gly. The respective Kis are 0.59 nM and 26.3 nM for the S- and R-isomers.
(§6) FIG. 14 gives the binding of S- and R-bucindolol in left ventricular membranes prepared from one patient who had the β1 389 Arg/Arg receptor (FIG. 14A), and another with the Gly/Gly (FIG. 14B) genotype. As can be observed, the S-isomer has much higher affinity, in both genotypes. In addition, the Kis are similar for both the S- (0.5-0.6 nM) and R- (around 14-26 nM) isomers in the Arg/Arg and Gly/Gly preparations. Similar results were obtained in the presence of Gpp(NH)p.

In the next experiment the target is T4, β1 389 Gly/Gly receptor (Homo sapiens, UniProt P08588).
T4 construct: human LV membranes that are 83% β1; AR and genotypically 389 Gly/Gly; from tissue; host or cells: human left ventricular membranes, one patient, genotype 389 Gly/Gly
As to the kind of experiment: Competition binding in human LV membranes, β1 389 Gly/Gly. The conditions noted are these: 83% β1 AR, genotype 389 Gly/Gly. Here is the method:
as §5, §6

The mark [5] stands for this setting: human LV membranes, 86% β1 AR, genotype 389 Arg/Arg.
[6] abbreviates: span over the Arg/Arg and Gly/Gly preparations.

In general, Ki refers to the equilibrium dissociation constant of an inhibitor or competing ligand from its target. A high value points to lower affinity.

T3 sequence (P08588 whole entry G389R): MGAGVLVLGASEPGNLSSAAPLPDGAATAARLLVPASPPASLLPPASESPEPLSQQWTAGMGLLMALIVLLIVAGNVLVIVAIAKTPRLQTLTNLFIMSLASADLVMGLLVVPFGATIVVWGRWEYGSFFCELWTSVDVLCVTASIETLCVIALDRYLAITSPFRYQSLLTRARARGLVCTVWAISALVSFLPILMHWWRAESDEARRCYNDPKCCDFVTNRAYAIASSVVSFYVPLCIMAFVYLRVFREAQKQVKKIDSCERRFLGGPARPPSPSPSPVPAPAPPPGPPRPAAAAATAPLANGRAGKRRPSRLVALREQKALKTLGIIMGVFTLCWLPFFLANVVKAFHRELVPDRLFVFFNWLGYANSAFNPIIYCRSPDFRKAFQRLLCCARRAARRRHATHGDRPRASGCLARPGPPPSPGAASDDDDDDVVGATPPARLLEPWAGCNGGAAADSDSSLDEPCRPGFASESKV
T4 sequence (P08588 whole entry): as the sequence (P08588 whole entry G389R) above, with R389G counted along it
T2 sequence (P08588 whole entry): as the sequence (P08588 whole entry G389R) above, with R389G counted along it
T1 sequence (P08588 whole entry G389R): as the sequence (P08588 whole entry G389R) above

For `CC(C)(Cc1c[nH]c2ccccc12)NCC(O)COc1ccccc1C#N` (racemic) [bucindolol, 2-(3-(1-(1H-indol-3-yl)-2-methylpropan-2-ylamino)-2-hydroxypropoxy)benzonitrile], the NO release in experiment [1] (African American donors) came to 306 ± 25 nM; in experiment [1] (Mexican American donors), 321 ± 28 nM; in experiment [1] (non-Hispanic white donors) it was 475 ± 27 nM. In addition, the “increase in NO release” value turned out to be 22% in experiment [1] (African American donors), 5% in experiment [1] (Mexican American donors) and 16% in experiment [1] (non-Hispanic white donors). Moreover, the “ONOO− levels” value was 378 ± 30 nM in experiment [2] (African American donors), 422 ± 27 nM in experiment [2] (Mexican American donors) and 244 ± 29 nM in experiment [2] (non-Hispanic white donors). For the same compound, the “reduction of ONOO− levels” value is listed as 12% in experiment [2] (African American donors), 14% in experiment [2] (Mexican American donors) and 19% in experiment [2] (non-Hispanic white donors). The “increase in NO/ONOO− ratio” value in experiment [3] (African American donors) came out at 38%; in experiment [3] (Mexican American donors), 23%; in experiment [3] (white donors) it was 49%. In addition, the “functional behaviour at the receptor (force development)” value on β1AR Arg/Arg (high signal transduction, adenylyl cyclase activated by forskolin) is “inverse agonist”; at β1AR Arg/Arg (low levels of signal transduction (low receptor activation)) it was “neutral antagonist”; on β1AR Gly carrier (in the presence of forskolin) it was “neutral antagonist”; on β1AR Gly carrier (low activation states) it was “inverse agonist”. Moreover, the “hazard ratio for the primary endpoint of all-cause mortality” value in experiment [4] (advanced heart failure, at premature stop of trial, C.I.s 0.78-1.02) is on record as 0.90. The “mortality versus placebo (in words)” value in experiment [4] (at early termination of BEST) is “no significant difference in mortality”. Besides, the “reduction of mortality or heart failure hospitalization” value in experiment [4] (entire BEST cohort, p<0.0001) was 19%.

Regarding `CC(C)(Cc1c[nH]c2ccccc12)NCC(O)COc1ccccc1C#N` (single isomer, unassigned) [(R)-bucindolol], the “favorable effect on endothelial function as compared to bucindolol racemate” value in experiment [3] was “less activity”. Moreover, the Ki on β1 389 Arg/Arg receptor (setting [5]) was 14 nM; at β1 389 Arg/Arg receptor (setting [6]), 14 to 26 nM; at β1 389 Gly/Gly receptor, 26.3 nM.

`CC(C)(Cc1c[nH]c2ccccc12)NCC(O)COc1ccccc1C#N` (single isomer, unassigned) [(S)-bucindolol]: the NO release worked out at 318 ± 16 nM in experiment [1] (African American donors), 358 ± 32 nM in experiment [1] (Mexican American donors) and 553 ± 35 nM in experiment [1] (non-Hispanic white donors). The “increase in NO release” value is given as 27% in experiment [1] (African American donors), 17% in experiment [1] (Mexican American donors) and 35% in experiment [1] (non-Hispanic white donors). The “ONOO− levels” value in experiment [2] (African American donors) is 352 ± 26 nM; in experiment [2] (Mexican American donors), 419 ± 34 nM; in experiment [2] (non-Hispanic white donors), 240 ± 24 nM. The “reduction of ONOO− levels” value worked out at 18% in experiment [2] (African American donors), 15% in experiment [2] (Mexican American donors) and 23% in experiment [2] (non-Hispanic white donors). The “favorable effect on endothelial function as compared to bucindolol racemate” value in experiment [3] was “more pronounced”. Moreover, the Ki on β1 389 Arg/Arg receptor (setting [5]) is 0.49 nM; at β1 389 Arg/Arg receptor (setting [6]) it was 0.5 to 0.6 nM; on β1 389 Gly/Gly receptor it was 0.59 nM.

Consider `CC(C)NCC(O)COc1ccc(CC(N)=O)cc1` (stereo not shown) [atenolol], for which the “effect on NO/ONOO− ratio (in words)” value in experiment [3] (1.0 and 10.0 μM, three donor groups) is reported as “failed to produce an effect”.
